Measurements as given in patent US12097380B2, “Shielding of magnetic field as a medical therapy” (Micromed Scientia, Inc., priority 2012, dated 2024).

Key:
[1] = test system: most sensitive non-small lung cancer cell; settings: as reported by Georgiadis et al. 1997, read-out: IC50 to Taxol; cited from earlier work
[2] = test system: non-small cell lung cancer cells A549; test: In vitro growth of A549 cells in the presence of Taxol, iron shielding box vs plastic box (CCK-8 cell viability); type: cell-based, human
Method: (§1) The surrounding magnetic field shielding device and the plastic box used in this experiment were the same as those described in Example 2 above.
The human non-small cell lung cancer cells (A549) and human breast cancer cell (MCF-7) were supplied by the Cell Resource Center, Shanghai Institute of Life Sciences. The cells were maintained in a monolayer and were grown at 37° C. in an atmosphere of 5% CO2 with moisture in RPMI 1640 medium, supplemented with 10% fetal bovine serum. The medium also contained […] Penicillin and 100 mg/L Streptomycin. The cells at exponentially growing phase were used in the experiments.
(§2) The human non-small cell lung cancer cells (A549) or the human breast cancer cells (MCF-7) were grown in 96 well plates. The growth of non-small cell lung cancer cell line and the breast cancer cell line were investigated while being exposed to environmental magnetic field or being shielded from environmental magnetic field. Each cell culture was separated into three equal portions. The first sample was cultured in a surrounding magnetic field shielded box (an iron shielding box). The second sample was cultured in a plastic box, and the third sample was cultured in the absence of any surrounding box as a control. All of the samples were placed in the incubator with an atmosphere containing 5% CO2 and at a temperature of 37° C. The cell growth rates were examined periodically by harvesting the cells and determining cell viability using the cell counting kit-8 and microplate reader RT-6000. The experiments were continued for four to seven days depending on the cell types and the respective growth rates.
(§3) Cell count kit-8 (CCK-8) ([…] manufactured by Dojindo Molecular Technologies, Inc.) allows sensitive colorimetric assays for the determination of cell viability. […]

[3] = test system: Taxol-resistant non-small cell lung cancer cells A549-T24; test: In vitro growth of Taxol-resistant A549-T24 cells in the presence of Taxol, iron shielding box vs plastic box (CCK-8 cell viability); type: cell-based, human; settings: for growth of A549-T24 in the iron shielding box slower than the control cultured in a plastic box: 12 nM Taxol in medium, 37° C., shielded vs unshielded
Description: as §1
The protocol described by Kavallaris et al., J. Clin. Invest., 100(5): 1282-1293 (1997)^[13] was followed to culture taxol-resistant human lung carcinoma cells A549. The human non-small cell lung cancer cells A549 were maintained in RPMI 1640 containing 10% FBS and 1% Penicillin-Streptomycin. For inducing its resistance to Taxol, in a stepwise manner, Taxol was added into the culture medium with periodically increasing its concentration. A549 cells were initially exposed to 3 nM of Taxol, and once normal growth was achieved, cells were maintained at this concentration. In two weeks, the Taxol dose was increased by two-fold, such as 3 nM, 6 nM, 12 nM, until the final drug concentration of 24 nM was achieved to develop Taxol-resistant cells. The obtained cells were maintained at a Taxol concentration of 24 nM. These Taxol-resistant cells were named as A549-T24.
as §2, with “The experiments were continued for four to seven days depending on the cell types and the respective growth rates.” left out
as §3

SMILES: CC(=O)O[C@H]1C(=O)[C@@]2(C)[C@H]([C@H](OC(=O)c3ccccc3)[C@]3(O)C[C@H](OC(=O)[C@H](O)[C@@H](NC(=O)c4ccccc4)c4ccccc4)C(C)=C1C3(C)C)[C@]1(OC(C)=O)CO[C@@H]1C[C@@H]2O [Taxol, Paclitaxel]
- IC50 [1]: 9.9 nM
- growth of A549 in the iron shielding box slower than the control cultured in a plastic box ([2]; 5 nM Taxol in medium, 37° C., 3 days of incubation, shielded vs unshielded, P<0.001): 16.3%
- growth of A549 in the iron shielding box decreased in comparison to the control cultured in a plastic box ([2]; 5 nM Taxol in medium, 37° C., 5 days of incubation, shielded vs unshielded, P<0.0005): 47.3%
- IC50 ([2]; Homo sapiens, 120 h, A549, under shielding of environmental magnetic field, 5 days, read-out: IC50 of Taxol (drug concentration at which cell growth is suppressed to 50%)): ~5 nM
- growth of A549-T24 in the iron shielding box slower than the control cultured in a plastic box ([3]; day 3, P<0.01): 11.2%
- growth of A549-T24 in the iron shielding box slower than the control cultured in a plastic box ([3]; day 4, P<0.001): 10.7%
- IC50 ([3]; Homo sapiens, 96 h, A549-T24, under shielding of surrounding magnetic field, day 4): ~10 nM
